Results on 24 compounds are retold here after patent US9957263B2, “Bromodomain inhibitors” (AbbVie Inc., priority 2013, dated 2018).

Structures are written as SMILES.

The target in one assay is BRD4 (BDII_E352-M457) (Homo sapiens (Human), UniProt O60885). The experiment in a line: TR-FRET bromodomain binding assay, BRD4 second bromodomain. Particulars: His-tagged BD2, Alexa647-labeled probe 30 nM. A digest of the protocol:
(§1)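 Affinity for each isolated His-tagged domain was measured as competition with a fluorescent Alexa647 BET-inhibitor probe in a TR-FRET format at pH 6.0, 1 h room temperature incubation. Ki values were calculated from fitted IC50s, probe Kd and probe level (100 nM BDI, 30 nM BDII).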

The target in another assay is BRD4 (BDI_K57-E168) (Homo sapiens (Human), UniProt O60885). Kind of assay: TR-FRET bromodomain binding assay, BRD4 first bromodomain. Particulars: His-tagged BD1, Alexa647-labeled probe 100 nM. A digest of the protocol: as §1

Take `Cc1cc(-c2ccc(-c3cn(C)c(=O)c4[nH]ccc34)c(OCC3CC3)c2)[nH]n1` [Example 1, 4-[2-(cyclopropylmethoxy)-4-(3-methyl-1H-pyrazol-5-yl)phenyl]-6-methyl-1,6-dihydro-7H-pyrrolo[2,3-c]pyridin-7-one]: the figures for the Ki at BRD4 (BDII_E352-M457) and at BRD4 (BDI_K57-E168) were 55 nM and 26 nM, respectively.

Turning to `Cn1cc(-c2cc(S(C)(=O)=O)ccc2Oc2cccc(C(=O)N3CCC(C(F)(F)F)CC3)c2)c2cc[nH]c2c1=O` [Example 31, 6-methyl-4-[5-(methylsulfonyl)-2-(3-{[4-(trifluoromethyl)piperidin-1-yl]carbonyl}phenoxy)phenyl]-1,6-dihydro-7H-pyrrolo[2,3-c]pyridin-7-one], the figures for the inhibitory constant (Ki) at BRD4 (BDII_E352-M457) and on BRD4 (BDI_K57-E168) were 11 nM and 21 nM, respectively.

For `COC1CCC(C(=O)N2CCC(Nc3ccc(S(C)(=O)=O)cc3-c3cn(C)c(=O)c4[nH]ccc34)CC2)CC1` (stereo not drawn) [Example 94, 4-[2-({1-[(4-methoxycyclohexyl)carbonyl]piperidin-4-yl}amino)-5-(methylsulfonyl)phenyl]-6-methyl-1,6-dihydro-7H-pyrrolo[2,3-c]pyridin-7-one], the Ki worked out at 20 nM on BRD4 (BDII_E352-M457) and 30 nM at BRD4 (BDI_K57-E168).

In the case of `Cn1cc(-c2cc(S(C)(=O)=O)ccc2NC2CCN(S(=O)(=O)Cc3ccccc3)CC2)c2cc[nH]c2c1=O` [Example 101, 4-[2-{[1-(benzylsulfonyl)piperidin-4-yl]amino}-5-(methylsulfonyl)phenyl]-6-methyl-1,6-dihydro-7H-pyrrolo[2,3-c]pyridin-7-one], the Ki came to 5.8 nM on BRD4 (BDII_E352-M457) and 6 nM at BRD4 (BDI_K57-E168).

Regarding `CN(C)CCNC(=O)c1cccc(Oc2ccc(S(C)(=O)=O)cc2-c2cn(C)c(=O)c3[nH]ccc23)c1` [Example 33, N-[2-(dimethylamino)ethyl]-3-[2-(6-methyl-7-oxo-6,7-dihydro-1H-pyrrolo[2,3-c]pyridin-4-yl)-4-(methylsulfonyl)phenoxy]benzamide], the Ki at BRD4 (BDII_E352-M457) was determined as 3.1 nM; at BRD4 (BDI_K57-E168), 8.1 nM.

For `Cn1cc(-c2cc(S(C)(=O)=O)ccc2Oc2cccc(NCc3ccccc3F)c2)c2cc[nH]c2c1=O` [Example 67, 4-[2-{3-[(2-fluorobenzyl)amino]phenoxy}-5-(methylsulfonyl)phenyl]-6-methyl-1,6-dihydro-7H-pyrrolo[2,3-c]pyridin-7-one], the Ki came to 2.8 nM at BRD4 (BDII_E352-M457) and 4.3 nM on BRD4 (BDI_K57-E168).

As to `COc1ccc(S(=O)(=O)N2CCC(Nc3ccc(S(C)(=O)=O)cc3-c3cn(C)c(=O)c4[nH]ccc34)CC2)cc1` [Example 104, 4-[2-({1-[(4-methoxyphenyl)sulfonyl]piperidin-4-yl}amino)-5-(methylsulfonyl)phenyl]-6-methyl-1,6-dihydro-7H-pyrrolo[2,3-c]pyridin-7-one], the values for the Ki at BRD4 (BDII_E352-M457) and on BRD4 (BDI_K57-E168) were 4 nM and 4.6 nM, respectively.

Consider `Cn1cc(-c2cc(S(C)(=O)=O)ccc2Oc2cccc(NS(=O)(=O)c3cccc(F)c3)c2)c2cc[nH]c2c1=O` [Example 40, 3-fluoro-N-{3-[2-(6-methyl-7-oxo-6,7-dihydro-1H-pyrrolo[2,3-c]pyridin-4-yl)-4-(methylsulfonyl)phenoxy]phenyl}benzenesulfonamide], for which the Ki amounted to 2 nM on BRD4 (BDII_E352-M457) and 5.4 nM at BRD4 (BDI_K57-E168).

In the case of `CCS(=O)(=O)c1ccc(OCC2CC2(F)F)c(-c2cn(C)c(=O)c3[nH]c(CN4CCN(c5ccncc5)CC4)cc23)c1` (stereo not drawn) [Example 16, 4-{2-[(2,2-difluorocyclopropyl)methoxy]-5-(ethylsulfonyl)phenyl}-6-methyl-2-{[4-(pyridin-4-yl)piperazin-1-yl]methyl}-1,6-dihydro-7H-pyrrolo[2,3-c]pyridin-7-one], the inhibitory constant (Ki) was 30 nM on BRD4 (BDII_E352-M457) and 2.5 nM on BRD4 (BDI_K57-E168).

Consider `CCS(=O)(=O)c1ccc(Oc2c(C)cccc2Cl)c(-c2cn(C)c(=O)c3[nH]c(C(=O)NCC#N)cc23)c1` [Example 120, 4-[2-(2-chloro-6-methylphenoxy)-5-(ethylsulfonyl)phenyl]-N-(cyanomethyl)-6-methyl-7-oxo-6,7-dihydro-1H-pyrrolo[2,3-c]pyridine-2-carboxamide], for which the Ki on BRD4 (BDII_E352-M457) is 158 nM; on BRD4 (BDI_K57-E168), > 238 nM.

Take `Cc1ccc(CNc2cccc(Oc3ccc(S(C)(=O)=O)cc3-c3cn(C)c(=O)c4[nH]ccc34)c2)c(C)c1` [Example 70, 4-[2-{3-[(2,4-dimethylbenzyl)amino]phenoxy}-5-(methylsulfonyl)phenyl]-6-methyl-1,6-dihydro-7H-pyrrolo[2,3-c]pyridin-7-one]: the inhibitory constant (Ki) at BRD4 (BDII_E352-M457) turned out to be 6.5 nM; at BRD4 (BDI_K57-E168), 16 nM.

Consider `Cn1cc(-c2cc(S(C)(=O)=O)ccc2Oc2cccc(NS(=O)(=O)c3ccc(S(C)(=O)=O)cc3)c2)c2cc[nH]c2c1=O` [Example 54, N-{3-[2-(6-methyl-7-oxo-6,7-dihydro-1H-pyrrolo[2,3-c]pyridin-4-yl)-4-(methylsulfonyl)phenoxy]phenyl}-4-(methylsulfonyl)benzenesulfonamide], for which the figures for the inhibitory constant (Ki) at BRD4 (BDII_E352-M457) and on BRD4 (BDI_K57-E168) were 1.1 nM and 3.2 nM, respectively.

Turning to `Cn1cc(-c2cc(S(C)(=O)=O)ccc2Oc2cccc(C(=O)NC3CCCCC3)c2)c2cc[nH]c2c1=O` [Example 25, N-cyclohexyl-3-[2-(6-methyl-7-oxo-6,7-dihydro-1H-pyrrolo[2,3-c]pyridin-4-yl)-4-(methylsulfonyl)phenoxy]benzamide], the inhibition constant Ki at BRD4 (BDII_E352-M457) is 6.1 nM; at BRD4 (BDI_K57-E168) it was 19 nM.

For `Cn1cc(-c2cc(S(C)(=O)=O)ccc2Oc2cccc(C(=O)NCCCN3CCCC3=O)c2)c2cc[nH]c2c1=O` [Example 27, 3-[2-(6-methyl-7-oxo-6,7-dihydro-1H-pyrrolo[2,3-c]pyridin-4-yl)-4-(methylsulfonyl)phenoxy]-N-[3-(2-oxopyrrolidin-1-yl)propyl]benzamide], the inhibition constant Ki on BRD4 (BDII_E352-M457) amounted to 11 nM; on BRD4 (BDI_K57-E168), 26 nM.

Turning to `CCS(=O)(=O)c1ccc(Oc2c(C)cccc2Cl)c(-c2cn(C)c(=O)c3[nH]c(C(=O)NCCC#N)cc23)c1` [Example 123, 4-[2-(2-chloro-6-methylphenoxy)-5-(ethylsulfonyl)phenyl]-N-(2-cyanoethyl)-6-methyl-7-oxo-6,7-dihydro-1H-pyrrolo[2,3-c]pyridine-2-carboxamide], the results for the Ki on BRD4 (BDII_E352-M457) and on BRD4 (BDI_K57-E168) were 5.6 nM and 39.9 nM, respectively.

For `Cn1cc(-c2cc(S(C)(=O)=O)ccc2Oc2ccc(F)cc2F)c2cc(CNCCC(N)=O)[nH]c2c1=O` [Example 159, 3-[({4-[2-(2,4-difluorophenoxy)-5-(methylsulfonyl)phenyl]-6-methyl-7-oxo-6,7-dihydro-1H-pyrrolo[2,3-c]pyridin-2-yl}methyl)amino]propanamide], the figures for the Ki at BRD4 (BDII_E352-M457) and on BRD4 (BDI_K57-E168) were 156 nM and 230 nM, respectively.

`CN(C)c1cccc(CNc2cccc(Oc3ccc(S(C)(=O)=O)cc3-c3cn(C)c(=O)c4[nH]ccc34)c2)c1` [Example 75, 4-[2-(3-{[3-(dimethylamino)benzyl]amino}phenoxy)-5-(methylsulfonyl)phenyl]-6-methyl-1,6-dihydro-7H-pyrrolo[2,3-c]pyridin-7-one]: the Ki was determined as 2.9 nM on BRD4 (BDII_E352-M457) and 8.5 nM at BRD4 (BDI_K57-E168).

`Cn1cc(-c2cc(S(C)(=O)=O)ccc2Oc2cccc(NCC3CCCO3)c2)c2cc[nH]c2c1=O` (stereo not drawn) [Example 65, 6-methyl-4-[5-(methylsulfonyl)-2-{3-[(tetrahydrofuran-2-ylmethyl)amino]phenoxy}phenyl]-1,6-dihydro-7H-pyrrolo[2,3-c]pyridin-7-one]: the inhibition constant (Ki) on BRD4 (BDII_E352-M457) was 2.1 nM; on BRD4 (BDI_K57-E168), 6.9 nM.

In the case of `Cn1cc(-c2cc(S(C)(=O)=O)ccc2Oc2cccc(NS(=O)(=O)c3cccc(C#N)c3)c2)c2cc[nH]c2c1=O` [Example 57, 3-cyano-N-{3-[2-(6-methyl-7-oxo-6,7-dihydro-1H-pyrrolo[2,3-c]pyridin-4-yl)-4-(methylsulfonyl)phenoxy]phenyl}benzenesulfonamide], the Ki on BRD4 (BDII_E352-M457) came to 2.2 nM; on BRD4 (BDI_K57-E168), 5.3 nM.

`Cn1cc(-c2cc(S(C)(=O)=O)ccc2Oc2cccc(C(=O)N3CCN(C4CCCC4)CC3)c2)c2cc[nH]c2c1=O` [Example 28, 4-[2-{3-[(4-cyclopentylpiperazin-1-yl)carbonyl]phenoxy}-5-(methylsulfonyl)phenyl]-6-methyl-1,6-dihydro-7H-pyrrolo[2,3-c]pyridin-7-one]: the Ki worked out at 11 nM on BRD4 (BDII_E352-M457) and 13 nM on BRD4 (BDI_K57-E168).

With `CCS(=O)(=O)Nc1cc(-c2cn(C)c(=O)c3[nH]ccc23)c(Oc2ccc(F)cc2F)cc1CN1CCN(C)CC1` [Example 5, N-{4-(2,4-difluorophenoxy)-5-(6-methyl-7-oxo-6,7-dihydro-1H-pyrrolo[2,3-c]pyridin-4-yl)-2-[(4-methylpiperazin-1-yl)methyl]phenyl}ethanesulfonamide], the Ki worked out at 1.7 nM at BRD4 (BDII_E352-M457) and 16 nM at BRD4 (BDI_K57-E168).

Regarding `COc1cccc(CNc2cccc(Oc3ccc(S(C)(=O)=O)cc3-c3cn(C)c(=O)c4[nH]ccc34)c2)c1` [Example 66, 4-[2-{3-[(3-methoxybenzyl)amino]phenoxy}-5-(methylsulfonyl)phenyl]-6-methyl-1,6-dihydro-7H-pyrrolo[2,3-c]pyridin-7-one], the inhibitory constant (Ki) at BRD4 (BDII_E352-M457) turned out to be 1.7 nM; on BRD4 (BDI_K57-E168), 3.8 nM.

In the case of `CCNC(=O)c1cc2c(-c3cc(S(=O)(=O)CC)ccc3Oc3c(C)cccc3CN3CCCC3=O)cn(C)c(=O)c2[nH]1` [Example 151, N-ethyl-4-[5-(ethylsulfonyl)-2-{2-methyl-6-[(2-oxopyrrolidin-1-yl)methyl]phenoxy}phenyl]-6-methyl-7-oxo-6,7-dihydro-1H-pyrrolo[2,3-c]pyridine-2-carboxamide], the Ki is 9.95 nM at BRD4 (BDII_E352-M457) and 813 nM on BRD4 (BDI_K57-E168).

On to `Cn1cc(-c2cc(S(C)(=O)=O)ccc2Oc2cccc(NS(=O)(=O)C3CC3)c2)c2cc[nH]c2c1=O` [Example 49, N-{3-[2-(6-methyl-7-oxo-6,7-dihydro-1H-pyrrolo[2,3-c]pyridin-4-yl)-4-(methylsulfonyl)phenoxy]phenyl}cyclopropanesulfonamide], for which the inhibitory constant (Ki) was determined as 1 nM at BRD4 (BDII_E352-M457) and 4.4 nM at BRD4 (BDI_K57-E168).
